Measured values taken from PubChem BioAssay (NCI).
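Briefly, cells in 96-well plates were exposed to five compound concentrations for 48 h, and endpoints were estimated by linear interpolation. The concentration for full growth arrest is given as TGI.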

Legend:
Experiment in all cases: DTP human tumour cell line panel, 48 h
HT29 colon = tested on: HT29 colon
COLO 205 colon = tested on: COLO 205 colon
RPMI-8226 leukemia = tested on: RPMI-8226 leukemia
HS 578T breast = tested on: HS 578T breast
MDA-MB-435 = tested on: MDA-MB-435
NCI-H23 lung = tested on: NCI-H23 lung
U251 CNS = tested on: U251 CNS
HOP-62 NSCLC = tested on: HOP-62 NSCLC
OVCAR-5 ovarian = tested on: OVCAR-5 ovarian
KM12 colon = tested on: KM12 colon
SK-MEL-5 melanoma = tested on: SK-MEL-5 melanoma
MDA-MB-231 breast = tested on: MDA-MB-231 breast
SNB-19 CNS = tested on: SNB-19 CNS
EKVX NSCLC = tested on: EKVX NSCLC
UACC-62 melanoma = tested on: UACC-62 melanoma
CAKI-1 renal = tested on: CAKI-1 renal
SF-268 CNS = tested on: SF-268 CNS
OVCAR-8 ovarian = tested on: OVCAR-8 ovarian
A549 NSCLC = tested on: A549 NSCLC
OVCAR-3 ovarian = tested on: OVCAR-3 ovarian
T-47D breast = tested on: T-47D breast
LOX IMVI melanoma = tested on: LOX IMVI melanoma
SNB-75 CNS = tested on: SNB-75 CNS
HOP-92 NSCLC = tested on: HOP-92 NSCLC
TK-10 renal = tested on: TK-10 renal
A498 renal = tested on: A498 renal
M14 melanoma = tested on: M14 melanoma
NCI/ADR-RES ovarian = tested on: NCI/ADR-RES ovarian
UO-31 renal = tested on: UO-31 renal
MDA-N = tested on: MDA-N
MALME-3M melanoma = tested on: MALME-3M melanoma
ACHN renal = tested on: ACHN renal
K-562 leukemia = tested on: K-562 leukemia
BT-549 breast = tested on: BT-549 breast
HCT-116 colon = tested on: HCT-116 colon
OVCAR-4 ovarian = tested on: OVCAR-4 ovarian
MOLT-4 leukemia = tested on: MOLT-4 leukemia
SW-620 colon = tested on: SW-620 colon
SK-MEL-2 melanoma = tested on: SK-MEL-2 melanoma
SR leukemia = tested on: SR leukemia
DU-145 prostate = tested on: DU-145 prostate
RXF 393 renal = tested on: RXF 393 renal
SK-OV-3 ovarian = tested on: SK-OV-3 ovarian
UACC-257 melanoma = tested on: UACC-257 melanoma
SN12C renal = tested on: SN12C renal
SF-295 CNS = tested on: SF-295 CNS
HCT-15 colon = tested on: HCT-15 colon
PC-3 prostate = tested on: PC-3 prostate
NCI-H460 lung = tested on: NCI-H460 lung
SK-MEL-28 melanoma = tested on: SK-MEL-28 melanoma
HL-60(TB) leukemia = tested on: HL-60(TB) leukemia
NCI-H522 lung = tested on: NCI-H522 lung
IGROV1 ovarian = tested on: IGROV1 ovarian
MCF7 breast = tested on: MCF7 breast
786-0 renal = tested on: 786-0 renal
NCI-H226 lung = tested on: NCI-H226 lung
CCRF-CEM leukemia = tested on: CCRF-CEM leukemia
SF-539 CNS = tested on: SF-539 CNS

Q: With `CCC1c2[nH]c3ccccc3c2C[C@H]2C(=O)NC(CCCCNC(=O)OC(C)(C)C)C(=O)N12` (stereo not given in full) as the molecule, how does the TGI (HT29 colon) read?
A: 99.3 µM

Q: And the TGI (COLO 205 colon)?
A: 66.9 µM

Q: What about the TGI (RPMI-8226 leukemia) of the same molecule?
A: 63.3 µM

Q: What about the TGI (HS 578T breast) of the same molecule?
A: 76.2 µM

Q: And the TGI (MDA-MB-435)?
A: 44.3 µM

Q: What about the TGI (NCI-H23 lung) of the same molecule?
A: 59.6 µM

Q: What about the TGI (U251 CNS) of the same molecule?
A: > 100 µM

Q: And the TGI (HOP-62 NSCLC)?
A: > 100 µM

Q: And the TGI (OVCAR-5 ovarian)?
A: > 100 µM

Q: And the TGI (KM12 colon)?
A: 44.7 µM

Q: What about the TGI (SK-MEL-5 melanoma) of the same molecule?
A: 38.8 µM

Q: What about the TGI (MDA-MB-231 breast) of the same molecule?
A: 99.4 µM

Q: What about the TGI (SNB-19 CNS) of the same molecule?
A: > 100 µM

Q: And the TGI (EKVX NSCLC)?
A: > 100 µM

Q: And the TGI (UACC-62 melanoma)?
A: 49.2 µM

Q: What about the TGI (CAKI-1 renal) of the same molecule?
A: 70.4 µM

Q: What about the TGI (SF-268 CNS) of the same molecule?
A: > 100 µM

Q: And the TGI (OVCAR-8 ovarian)?
A: > 100 µM

Q: And the TGI (A549 NSCLC)?
A: > 100 µM

Q: And the TGI (OVCAR-3 ovarian)?
A: 63.4 µM

Q: What about the TGI (T-47D breast) of the same molecule?
A: > 100 µM

Q: And the TGI (LOX IMVI melanoma)?
A: 54.7 µM

Q: And the TGI (SNB-75 CNS)?
A: 58.2 µM

Q: What about the TGI (HOP-92 NSCLC) of the same molecule?
A: 94.4 µM

Q: And the TGI (TK-10 renal)?
A: > 100 µM

Q: And the TGI (A498 renal)?
A: > 100 µM

Q: What about the TGI (M14 melanoma) of the same molecule?
A: 40.9 µM

Q: What about the TGI (NCI/ADR-RES ovarian) of the same molecule?
A: 74.6 µM

Q: What about the TGI (UO-31 renal) of the same molecule?
A: > 100 µM

Q: What about the TGI (MDA-N) of the same molecule?
A: 54.9 µM

Q: And the TGI (MALME-3M melanoma)?
A: 50.5 µM

Q: And the TGI (ACHN renal)?
A: > 100 µM

Q: What about the TGI (K-562 leukemia) of the same molecule?
A: > 100 µM

Q: What about the TGI (BT-549 breast) of the same molecule?
A: 58.2 µM

Q: What about the TGI (HCT-116 colon) of the same molecule?
A: 94.4 µM

Q: What about the TGI (OVCAR-4 ovarian) of the same molecule?
A: > 100 µM

Q: And the TGI (MOLT-4 leukemia)?
A: 43.5 µM

Q: What about the TGI (SW-620 colon) of the same molecule?
A: > 100 µM

Q: What about the TGI (SK-MEL-2 melanoma) of the same molecule?
A: 57.8 µM

Q: And the TGI (SR leukemia)?
A: 92.8 µM

Q: And the TGI (DU-145 prostate)?
A: > 100 µM

Q: What about the TGI (RXF 393 renal) of the same molecule?
A: > 100 µM

Q: What about the TGI (SK-OV-3 ovarian) of the same molecule?
A: > 100 µM

Q: What about the TGI (UACC-257 melanoma) of the same molecule?
A: 66.8 µM

Q: And the TGI (SN12C renal)?
A: > 100 µM

Q: What about the TGI (SF-295 CNS) of the same molecule?
A: 62.4 µM

Q: What about the TGI (HCT-15 colon) of the same molecule?
A: > 100 µM

Q: And the TGI (PC-3 prostate)?
A: 58.7 µM

Q: What about the TGI (NCI-H460 lung) of the same molecule?
A: > 100 µM

Q: What about the TGI (SK-MEL-28 melanoma) of the same molecule?
A: > 100 µM

Q: And the TGI (HL-60(TB) leukemia)?
A: 59.6 µM

Q: And the TGI (NCI-H522 lung)?
A: 50.9 µM

Q: And the TGI (IGROV1 ovarian)?
A: > 100 µM

Q: And the TGI (MCF7 breast)?
A: > 100 µM

Q: And the TGI (786-0 renal)?
A: 81.3 µM

Q: What about the TGI (NCI-H226 lung) of the same molecule?
A: > 100 µM

Q: Which results are given for `COC(=O)c1cnn2c1ccc1ccccc12`?
A: TGI (HT29 colon): > 100 µM; TGI (COLO 205 colon): > 100 µM; TGI (RPMI-8226 leukemia): > 100 µM; TGI (HS 578T breast): > 100 µM; TGI (MDA-MB-435): > 100 µM; TGI (NCI-H23 lung): > 100 µM; TGI (U251 CNS): > 100 µM; TGI (HOP-62 NSCLC): > 100 µM; TGI (CCRF-CEM leukemia): > 100 µM; TGI (OVCAR-5 ovarian): > 100 µM; TGI (KM12 colon): > 100 µM; TGI (SK-MEL-5 melanoma): > 100 µM; TGI (MDA-MB-231 breast): > 100 µM; TGI (SNB-19 CNS): > 100 µM; TGI (EKVX NSCLC): > 100 µM; TGI (UACC-62 melanoma): > 100 µM; TGI (CAKI-1 renal): > 100 µM; TGI (SF-268 CNS): > 100 µM; TGI (OVCAR-8 ovarian): > 100 µM; TGI (A549 NSCLC): > 100 µM; TGI (OVCAR-3 ovarian): > 100 µM; TGI (T-47D breast): > 100 µM; TGI (LOX IMVI melanoma): > 100 µM; TGI (SNB-75 CNS): > 100 µM; TGI (SF-539 CNS): > 100 µM; TGI (HOP-92 NSCLC): > 100 µM; TGI (TK-10 renal): > 100 µM; TGI (A498 renal): > 100 µM; TGI (M14 melanoma): > 100 µM; TGI (NCI/ADR-RES ovarian): > 100 µM; TGI (UO-31 renal): > 100 µM; TGI (MDA-N): > 100 µM; TGI (MALME-3M melanoma): > 100 µM; TGI (ACHN renal): > 100 µM; TGI (K-562 leukemia): > 100 µM; TGI (BT-549 breast): > 100 µM; TGI (HCT-116 colon): > 100 µM; TGI (MOLT-4 leukemia): > 100 µM; TGI (SW-620 colon): > 100 µM; TGI (SK-MEL-2 melanoma): > 100 µM; TGI (DU-145 prostate): > 100 µM; TGI (RXF 393 renal): > 100 µM; TGI (SK-OV-3 ovarian): > 100 µM; TGI (UACC-257 melanoma): > 100 µM; TGI (SN12C renal): > 100 µM; TGI (SF-295 CNS): > 100 µM; TGI (HCT-15 colon): > 100 µM; TGI (PC-3 prostate): > 100 µM; TGI (NCI-H460 lung): > 100 µM; TGI (SK-MEL-28 melanoma): > 100 µM; TGI (HL-60(TB) leukemia): > 100 µM; TGI (NCI-H522 lung): > 100 µM; TGI (IGROV1 ovarian): > 100 µM; TGI (786-0 renal): > 100 µM; TGI (NCI-H226 lung): > 100 µM

Q: What does the source list for `O=C1NC(c2c(Cl)cccc2Cl)Nc2ccccc21` (stereo not given)?
A: TGI (HT29 colon): > 100 µM; TGI (COLO 205 colon): > 100 µM; TGI (RPMI-8226 leukemia): > 100 µM; TGI (HS 578T breast): 74.1 µM; TGI (MDA-MB-435): 33 µM; TGI (U251 CNS): > 100 µM; TGI (HOP-62 NSCLC): > 100 µM; TGI (OVCAR-5 ovarian): > 100 µM; TGI (KM12 colon): 43.7 µM; TGI (SK-MEL-5 melanoma): 72.7 µM; TGI (MDA-MB-231 breast): > 100 µM; TGI (SNB-19 CNS): > 100 µM; TGI (EKVX NSCLC): > 100 µM; TGI (UACC-62 melanoma): > 100 µM; TGI (CAKI-1 renal): 76.7 µM; TGI (SF-268 CNS): > 100 µM; TGI (OVCAR-8 ovarian): > 100 µM; TGI (A549 NSCLC): > 100 µM; TGI (OVCAR-3 ovarian): > 100 µM; TGI (T-47D breast): > 100 µM; TGI (LOX IMVI melanoma): > 100 µM; TGI (SNB-75 CNS): 37.4 µM; TGI (SF-539 CNS): > 100 µM; TGI (HOP-92 NSCLC): > 100 µM; TGI (TK-10 renal): > 100 µM; TGI (A498 renal): > 100 µM; TGI (M14 melanoma): > 100 µM; TGI (NCI/ADR-RES ovarian): > 100 µM; TGI (UO-31 renal): > 100 µM; TGI (MDA-N): 70.5 µM; TGI (MALME-3M melanoma): 88.7 µM; TGI (ACHN renal): > 100 µM; TGI (BT-549 breast): > 100 µM; TGI (HCT-116 colon): > 100 µM; TGI (OVCAR-4 ovarian): > 100 µM; TGI (MOLT-4 leukemia): > 100 µM; TGI (SW-620 colon): > 100 µM; TGI (SK-MEL-2 melanoma): > 100 µM; TGI (DU-145 prostate): > 100 µM; TGI (RXF 393 renal): > 100 µM; TGI (SK-OV-3 ovarian): > 100 µM; TGI (UACC-257 melanoma): > 100 µM; TGI (SN12C renal): > 100 µM; TGI (SF-295 CNS): > 100 µM; TGI (HCT-15 colon): > 100 µM; TGI (PC-3 prostate): > 100 µM; TGI (NCI-H460 lung): > 100 µM; TGI (SK-MEL-28 melanoma): > 100 µM; TGI (HL-60(TB) leukemia): 46.9 µM; TGI (NCI-H522 lung): > 100 µM; TGI (IGROV1 ovarian): > 100 µM; TGI (MCF7 breast): > 100 µM; TGI (786-0 renal): > 100 µM; TGI (NCI-H226 lung): > 100 µM
